For experiment [1], the system named is alpha-Gal epitope. As to the kind of experiment: inactivation test of alpha-Gal epitopes in samples of cow's milk (M86 antibody incubation, centrifugation, alpha-Gal/HSA ELISA). It counts as biochemical. The conditions noted are these: 0.5% w/v, ambient temperature. On the procedure:
incubating samples of milk with the addition of an antibody aimed at the alpha-Gal epitope that is present in the milk; in such embodiment, the antibody is for example a murine monoclonal antibody M86; it should be understood that all mono- or polyclonal antibodies and/or antibodies belonging to different isotypes, which have shown a proven specificity against the antigen in question, can be used; in general, the anti-xenoantigen antibody is an antibody specifically aimed at the alpha-Gal epitope;
separating, by way of centrifugation, the resulting immune complex created owing to the bond between antigen and antibody;
preparing a plate with 96 wells for the E.L.I.S.A. text with coating comprising the xenoantigen epitope, i.e. an alpha-Gal/human serum albumin coating;
adding, in the wells, supernatant taken from the milk samples subjected to centrifuge; the supernatant contains the part of anti-alpha-Gal antibody that has not bonded with epitopes; as is known, a column of wells is adapted to define a reference value, known in the jargon as ‘blank value’, that corresponds to the maximum signal between antibody and epitopes,
completing the plate with a secondary antibody conjugated with an enzyme, or other molecule for qualitative or quantitative evaluation through colorimetric assay, adapted to chromatically highlight the presence if any of the anti-alpha-Gal antibody; in the present embodiment, the secondary antibody is constituted by a rabbit polyclonal anti-mouse antibody, conjugated with the peroxidase enzyme, or with other types, enzymatic or otherwise, capable of providing qualitative or quantitative indications through colorimetric assay;
reading the plate, determining the presence of anti-alpha-Gal antibody that has remained free in the solutions of the samples;
comparing the absorbance values detected in the column that defines the reference values with the values detected in the other columns of samples of the plate.
Two solutions are made up with different concentrations of phenylpropanoid, using the milk as solvent in a total volume of 50 ml. In this specific example, which obviously should be understood to be non-limiting of the invention, an extract of “Lippia Citriodora” was used, titrated at 93% verbascoside. […]
These solutions are left to act under moderate but constant stirring, for a total of […] at 25±5° C.
Samples are taken at 30±2 minutes, 1±0.1 hour and 3±0.1 hours.
An aliquot of milk is taken from each sampling, comprised between 200 ul and 500 ul, and preferably 300 ul, to which a buffer is added, Na3C6H5O7 0.2M at pH 7.0±0.5, until a final volume is reached comprised between 1000 ul and 1500 ul, and preferably a final volume of 1500 ul.
Then a murine antibody, directed against the alpha-Gal epitope, is added (in the present example this is an IgM clone called M86), at the preferable concentration of [1:50] w/v and the whole is incubated for 120±10 minutes at 37±2° C. under constant but moderate stirring.
At the end the samples are subjected to centrifugation at 10,000×g for 30±2 minutes at 4±2° C.
During incubation with the M86 antibody, a plate with 96 wells is prepared with 100 ul per well of alpha-Gal/HSA (Human Serum Albumin) at 5 ug/ml in a PBS buffer (pH 7.0±0.5).
The plate thus prepared is incubated for 60±10 minutes at a temperature comprised between 30° C.-40° C., although it is preferable to stabilize everything at 37° C.±2.0° C.
Then 3 washes are carried out with 300 ul per well of PBS (physiological pH) at ambient temperature.
The first wash is left to act for 5 minutes, the two subsequent washes for 3 minutes each.
The blocking is done with 300 ul per well of 2±0.5% of serum albumin in PBS, followed by covering the plate with protective film and incubation for 60±10 minutes at ambient temperature, in darkness.
Subsequently 3 washes are performed as above. […]
On the technique in general: ELISA stands for enzyme-linked immunosorbent assay.

The test system of experiment [2] is alpha-Gal epitope. As to the kind of experiment: inactivation test of alpha-Gal epitopes in samples of milk substitutes based on rice and soya (M86 antibody incubation, centrifugation, alpha-Gal/HSA ELISA). It counts as biochemical. The conditions noted are these: milk substitute based on rice and soya, caffeic acid 0.3% w/v (method: 0.5±0.05% w/v), ambient temperature. Here is the method: Three solutions are made up, using a milk substitute based on rice and soya as solvent, for example a substitute comprising 17% rice, 17% soy seeds, in a total volume of 50 ml. In the present example, which is non-limiting of the invention, extracts of “Lippia citriodora” are used, titrated at 93% verbascoside. […] These solutions are left to act under moderate but constant stirring, for a total of 3±0.1 hours at 25±5° C. Samples are taken at 30±2 minutes, 1±0.1 hour and 3±0.1 hours. An aliquot of milk is taken from each sampling, comprised between 200 and 500 ul, and preferably a dose of 300 ul, to which a buffer is added, Na3C6H5O7 at pH 7.0±0.5, until a final volume is reached comprised between 1000 and 1500 ul, and preferably a final volume of 1500 ul. Then a murine antibody, directed against the alpha-Gal epitope, is added, for example an IgM clone called M86, at the preferable concentration of [1:50] w/v and the whole is incubated for 120±10 minutes at 37±2° C. under constant but moderate stirring. At the end the samples are subjected to centrifugation at 10,000×g for 30±2 minutes at 4±2° C. During incubation with the M86 antibody, a plate with 96 wells is prepared with 100 ul per well of alpha-Gal/HSA (Human Serum Albumin) at 5 ug/ml in a PBS buffer (pH 7.0±0.5). The plate thus prepared is incubated for 60±10 minutes at a temperature comprised between 30° C.-40° C., although it is preferable to stabilize everything at 37±2.0° C. Then 3 washes are carried out with 300 ul per well of PBS (physiological pH) at ambient temperature. The first wash is left to act for 5 minutes, the two subsequent washes for 3 minutes each. […] Then 50 ul per well of the stop solution is added, which is constituted by H2SO4 2M and the plate is then read in a plate reader at the wavelength of 450 nm. The test of inactivation is based on the comparison between the absorbance values of column number 1 which constitutes the blank value (100% of antibody available) and the respective columns of the samples. […]

On to `O=C(O)/C=C/c1ccc(O)c(O)c1` [caffeic acid], for which the antigens inactivated in the experiment with alpha-Gal epitope [1] (after 30 minutes) is 51.2±4.2%; in the experiment with alpha-Gal epitope [1] (after 1 hour) it was 61.1±2.6%; in the experiment with alpha-Gal epitope [1] (after 3 hours of incubation), 72.3±2.8%; in the experiment on alpha-Gal epitope [2] (after 30 minutes) it was 61.8±2.8%; in the experiment with alpha-Gal epitope [2] (after 1 hour) it was 78.3±4.1%; in the experiment with alpha-Gal epitope [2] (after 3 hours of incubation), 89.2±1.8%.

Turning to `O=C(OC[C@H]1O[C@@H](OC(=O)c2cc(O)c(O)c(OC(=O)c3cc(O)c(O)c(O)c3)c2)[C@H](OC(=O)c2cc(O)c(O)c(OC(=O)c3cc(O)c(O)c(O)c3)c2)[C@@H](OC(=O)c2cc(O)c(O)c(OC(=O)c3cc(O)c(O)c(O)c3)c2)[C@@H]1OC(=O)c1cc(O)c(O)c(OC(=O)c2cc(O)c(O)c(O)c2)c1)c1cc(O)c(O)c(OC(=O)c2cc(O)c(O)c(O)c2)c1` [tannic acid], the antigens inactivated with alpha-Gal epitope [1] (after 30 minutes) is given as 67.7±7.1%; in the experiment with alpha-Gal epitope [1] (after 1 hour) it was 71.8±2.2%; in the experiment on alpha-Gal epitope [1] (after 3 hours of incubation) it was 80.6±1.8%.

(Values after US11366090B2, “Method for the inactivation and inactivation testing of xeno antigens in foods of animal origin, particularly for milk and derivatives, and in foods of plant origin, particularly for milk substitutes based on soy and/or rice” (Biocompatibility Innovation S.R.L., priority 2016, dated 2022).)
